# Results: US7307063B2, “Melanocortin metallopeptides for treatment of sexual dysfunction” (Palatin Technologies, Inc., priority 2001, dated 2007)
# Several values for one entry are separate records, joined by “and”; a condition that tells them apart may be missing. Equal values may be shown once. Non-standard residues stand in square brackets, D forms with d. No end group written: not given here. *: point of attachment. Phenylacetyl(4-Ph) = O=C(Cc1ccc(-c2ccccc2)cc1)*; Tic = O=C(O)[C@@H]1Cc2ccccc2CN1; Ac6c = NC1(C(=O)O)CCCCC1; Nle = CCCC[C@H](N)C(=O)O
# Experiments:
# MC4-R = target: T1, MC4-R (Homo sapiens, UniProt P32245); assay: Competitive binding assay: inhibition of 125I-NDP-α-MSH binding to HEK-293 membranes with cloned human receptor subtype 4; details: Table 6; 1 μM; mean of triplicate
# T1 construct: expressed in transfected cells; host or cells: HEK-293
# Experimental: (§1) Rhenium-complexed metallopeptides of the formulas given in Table 1 were prepared, with the metallopeptides complexed with rhenium using the rhenium transfer agent ReOCl3(PPh3)2 in the presence of 1,8-Diazabicyclo[5,4,0] undec-7-ene as a base, as disclosed in International Application PCT/US00/16396, filed Jun. 14, 2000, Melanocortin Metallopeptide Constructs, Combinatorial Libraries and Applications, incorporated by reference herein. Affinities of compounds were measured using membranes from HEK-293 cells containing cloned human melanocortin receptor subtypes 3, 4 and 5. MC1-R membranes were isolated from B16—F10 mouse melanoma cells. The assay tube also contained a chosen concentration of the test peptide of this invention, complexed to a rhenium metal ion as indicated, for determining its efficacy in inhibiting the binding of ^125I-NDP-α-MSH to its receptor. Non-specific binding was measured by complete inhibition of binding of ^125I-NDP-α-MSH in the assay with the presence of 1 μM α-MSH. 100% specific binding was defined as the difference in radioactivity (cpm) bound to cell membranes in the absence and presence of 1 μM α-MSH. The cpm obtained in presence of test compounds were normalized with respect to 100% specific binding to determine the percent inhibition of ^125I-NDP-α-MSH binding.
# (§2) Peptide sequences set forth in Table 6 were prepared using conventional synthetic means. The resulting sequences were rhenium-complexed to form metallopeptides, with the metallopeptides complexed with rhenium using the rhenium transfer agent ReOCl3(PPh3)2 in the presence of 1,8-Diazabicyclo[5,4,0] undec-7-ene as a base. Percent inhibition was determined as in Example 1 using the Re-complexed metallopeptides, using the same methods as described therein. All measures are means of triplicate determinations.
# hMC5-R = target: T2, hMC5-R (Homo sapiens, UniProt P33032); assay: Competitive binding assay: inhibition of 125I-NDP-α-MSH binding to HEK-293 membranes with cloned human receptor subtype 5; details: Table 6; 1 μM; mean of triplicate
# T2 construct: expressed in transfected cells; host or cells: HEK-293
# Experimental: as §1, §2
# MC1-R = target: T3, MC1-R (Mus musculus, UniProt Q01727); assay: Competitive binding assay: inhibition of 125I-NDP-α-MSH binding to membranes from B16-F10 mouse melanoma cells; details: Table 6; 1 μM; mean of triplicate
# T3 construct: MC1-R membranes were isolated from B16—F10 mouse melanoma cells; endogenous in cells; host or cells: B16-F10 mouse melanoma cells
# Experimental: as §1, §2
# hMC2-R = target: T4, hMC2-R (Homo sapiens, UniProt P41968); assay: Competitive binding assay of additional compounds, Table 6 hMC2-R; details: 1 μM, mean of triplicate
# T4 construct: expressed in transfected cells; host or cells: HEK-293
# Experimental: [The source words this procedure for another target and reports this target under the same test.] as §1, §2
# T1 sequence (P32245 whole entry): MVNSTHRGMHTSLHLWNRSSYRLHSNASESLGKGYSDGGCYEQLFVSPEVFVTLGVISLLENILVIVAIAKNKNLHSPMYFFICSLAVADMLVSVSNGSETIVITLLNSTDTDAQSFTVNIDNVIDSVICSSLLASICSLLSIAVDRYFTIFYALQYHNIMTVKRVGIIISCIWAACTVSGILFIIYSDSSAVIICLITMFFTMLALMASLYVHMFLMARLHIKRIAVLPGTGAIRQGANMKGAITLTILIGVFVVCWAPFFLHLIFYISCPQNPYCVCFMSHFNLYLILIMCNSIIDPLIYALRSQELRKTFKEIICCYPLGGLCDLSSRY
# T2 sequence (P33032 whole entry): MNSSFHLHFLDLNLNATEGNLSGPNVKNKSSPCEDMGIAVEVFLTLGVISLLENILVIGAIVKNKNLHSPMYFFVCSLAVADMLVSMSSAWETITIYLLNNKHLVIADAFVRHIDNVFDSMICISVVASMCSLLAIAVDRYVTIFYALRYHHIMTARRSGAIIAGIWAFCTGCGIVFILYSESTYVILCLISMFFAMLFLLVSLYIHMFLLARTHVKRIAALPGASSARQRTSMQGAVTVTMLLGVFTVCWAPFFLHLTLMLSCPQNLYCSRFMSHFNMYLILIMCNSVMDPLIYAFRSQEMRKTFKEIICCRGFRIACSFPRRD
# T3 sequence (Q01727 whole entry): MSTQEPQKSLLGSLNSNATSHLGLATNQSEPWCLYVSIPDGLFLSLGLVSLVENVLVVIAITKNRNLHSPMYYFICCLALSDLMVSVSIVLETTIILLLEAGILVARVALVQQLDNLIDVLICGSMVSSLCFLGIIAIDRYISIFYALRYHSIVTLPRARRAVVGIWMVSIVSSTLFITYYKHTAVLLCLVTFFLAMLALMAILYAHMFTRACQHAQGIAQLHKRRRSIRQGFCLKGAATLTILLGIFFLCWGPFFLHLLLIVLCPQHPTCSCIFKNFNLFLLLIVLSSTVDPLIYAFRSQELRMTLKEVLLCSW
# T4 sequence (P41968 whole entry): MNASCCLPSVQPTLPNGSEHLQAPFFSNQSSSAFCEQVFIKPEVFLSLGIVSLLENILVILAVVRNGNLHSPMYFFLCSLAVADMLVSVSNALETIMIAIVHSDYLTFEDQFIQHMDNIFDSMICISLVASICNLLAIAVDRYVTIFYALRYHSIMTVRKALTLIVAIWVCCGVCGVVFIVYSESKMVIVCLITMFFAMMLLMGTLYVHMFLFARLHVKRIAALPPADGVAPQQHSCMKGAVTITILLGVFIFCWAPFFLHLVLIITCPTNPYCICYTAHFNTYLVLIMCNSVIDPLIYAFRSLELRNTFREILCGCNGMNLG
Substance,% Inhibition of Binding hMC4-R (MC4-R),% Inhibition of Binding hMC5-R (hMC5-R),% Inhibition of Binding MC1-R (MC1-R),% Inhibition of Binding hMC2-R (hMC2-R)
3′-Br Phenyl acetyl-Arg-Arg-D-Phe(4′-Me)-Cys-Trp-NH2,98% and 82%,94%,93% and 85%,86%
Tic-D-Phe-Arg-Trp-Cys-NH2 ([Tic][dF]RWC-NH2; also: metal complex),64%,69%,14%,25%
Tic-D-Phe(4′-Cl)-Arg-Trp-Cys-NH2,88%,90%,45%,71%
Tic-D-Nal-2′-Arg-Trp-Cys-NH2,92%,83%,10%,52%
3′-Br-Phenylacetyl-His-D-Phe(4′-Cl)-Trp-Cys-NH2,3%,40%,41%,15%
3′-Bromo phenyl acetyl-Arg-Thr(Bzl)-D-Phe(4′-Cl)-Cys-NH2,6%,21%,16%,5%
Amc-D-Phe-Arg-Cys-Trp-NH2,4%,8%,7%,0%
1-amino-1-cyclohexane carboxyl-D-Phe-Arg-Trp-Cys-NH2 ([Ac6c][dF]RWC-NH2; N-terminus assumed; SMILES N=C(N)NCCC[C@H](NC(=O)[C@@H](Cc1ccccc1)NC(=O)C1(N)CCCCC1)C(=O)N[C@@H](Cc1c[nH]c2ccccc12)C(=O)N[C@@H](CS)C(N)=O),1%,16%,11%,0%
Aic-D-Phe-Arg-Cys-Trp-NH2,21%,71%,59%,0%

# Next, values leading:
% Inhibition of Binding hMC4-R (MC4-R),% Inhibition of Binding hMC5-R (hMC5-R),% Inhibition of Binding MC1-R (MC1-R),% Inhibition of Binding hMC2-R (hMC2-R),Substance
12%,20%,34%,9%,Ac-Nle-Ala-Ala-D-Phe-Arg-Cys-Trp-NH2 (Ac-[Nle]AA[dF]RCW-NH2; not fully specified; printed as Ac-Nle-Ala-Ala-D-Phe-Arg-Cys-Trp-NH2)
0%,5%,39%,0%,Amb-D-Phe-Arg-Trp-Cys-NH2
0%,44%,66%,0%,Ac-[Nle]AY[dF]RCW-NH2
0%,50%,1%,0%,4′-Biphenylacetyl-D-Phe-Arg-Cys-Trp-NH2 ({Phenylacetyl(4-Ph)}-[dF]RCW-NH2; not fully specified; printed as 4′-Biphenylacetyl-D-Phe-Arg-Cys-Trp-NH2)
75%,89%,65%,68%,3′-Br Phenyl acetyl-Arg-Arg-D-Phe(3′-Cl)-Cys-Nal 2′-NH2
80%,86%,8%,35%,3′-Bromo phenyl acetyl-Arg-Ala-D-Phe(4′-Cl)-Cys-Trp-NH2
39%,59%,92%,26%,Ac-Nle-Ala-Arg-D-Phe-Arg-Cys-Trp-NH2 (Ac-[Nle]AR[dF]RCW-NH2; not fully specified; printed as Ac-Nle-Ala-Arg-D-Phe-Arg-Cys-Trp-NH2)
